# In patent publication US20260297127A1, “REVERSIBLE SURFACTANT AND MULTIFUNCTIONAL DRUG DELIVERY SYSTEMS BASED THEREON” (Yissum Research Development Company of the Hebrew …, priority 2023, published 2026):
# Peptide text beside a SMILES is read from it.
# Legend:
# [1] = Emulsion formation and stability (mixing with non-aqueous phase, manual agitation); format: physicochemical; settings: chloroform-water
# From the text: We designed the peptide Trp-His-His-Trp (WHHW, SEQ ID NO 1), which contains a metal-binding dihistidine moiety surrounded by two hydrophobic amino acids. When an aqueous solution of the peptide and certain metal ions are mixed with a non-aqueous phase, an emulsion is formed (FIG. 1B). […] Depending on the ratio between the aqueous and non-aqueous phases, o/w or w/o emulsions can be formed (FIG. 1C). The peptide has weak inherent fluorescence, but its presence on the interface of the emulsion droplets was inferred by labeling it with fluorescein isothiocyanate (FITC) (FIG. 1D).
# By increasing the pH again, the emulsion can be reassembled. With chloroform as the non-aqueous phase, the emulsion has a critical micelle concentration of ~0.2 mM and it is stable for at least 4 months at room temperature (FIG. 3A). Adding ethylenediaminetetraacetic acid (EDTA) to remove the metal ions visibly disassembled the emulsion after ~24 h (FIG. 3B).
# The same peptide derivatives in the presence of Cu^2+ ions, were further mixed with chloroform and manually agitated to form emulsions (FIG. 8).
# The emulsions were prepared by mixing a peptide solution with the metal ions to a final concentration of 1 mm each and adding NaOH to obtain pH=10. The desired non-aqueous phase was added to this solution at 50% (v/v) and the two phases were manually agitated to form the emulsions. […]
# [2] = UV-vis titration / Benesi-Hildebrand plot / Job's plot of peptide with Cu^2+ ions; format: binding; settings: read-out: stability constant (converted)
# Experimental: FIG. 6. Benesi-Hildebrand plot. The stability constant derived from this plot was 6918.3±0.2 M^−1, similar to the known value for imidazole.
# (FIG. 3A). […] A Job's plot was prepared as well with the peptide and Cu^2+ ions (FIG. 7B). In the samples with excess Cu^2+ ions (those above χ=0.5) the absorbance increased without an increase in the complex concentration. This may be because of the formation of Cu(OH)2 precipitates from the excess Cu^2+ ions due to the alkaline pH. To negate this effect, the absorbance values of solutions that contained the concentration of the excess Cu^2+ were subtracted from the original measurements. This yielded good linear fittings that indicate a 1:1 binding ratio.
# For the UV-vis titration, a peptide solution (1.5 mm) was titrated with a CuCl2 solution (15 mM). The solutions were left for 5 min and the absorbance was measured using a UV-vis spectrophotometer (Shimadzu, UV-1650PC, Kyoto, Japan). For the Job's plot assay, peptide solutions with different mole fractions of Cu^2+ ions (up to 1 mm) were prepared at pH=9 and their absorbance values were measured.
# [3] = Self-assembly of the peptide observed experimentally; format: physicochemical
# [4] = Encapsulation efficiency (% EE) in castor oil emulsions and solubility in the oil phase; format: physicochemical; settings: for % EE (encapsulation efficiency) in words: castor oil emulsion
# Experimental: The % EE values may be altered to fit different drugs by changing the oil phase or by changing the emulsion preparation parameters such as the oil-water ratio.
# The encapsulation efficiency (% EE) values were determined by comparing the amount of the free compound in the aqueous phase with the initial concentration. The compounds were dissolved in castor oil with 10% (v/v) ethanol. […] The % EE values were calculated using the formula: % EE=(Cinitial−C(aq.))/Cinitial×100%, where Cinitial is the concentration of the compound in the emulsion and Caq. is the concentration of the compound in the aqueous phase after the centrifugation. The measurements were performed in triplicates.
# [5] = in words; cited from earlier work
# [6] = histidine residues; cited from earlier work
# [7] = Zn^2+ ions for PTX; metal ions for the others; cited from earlier work
# [8] = system: cervical adenocarcinoma HeLa cells; assay: MTT cytotoxicity assay, 72 h incubation; format: cell-based; settings: Homo sapiens, PTX on its own, dissolved in DMSO, read-out: half maximal inhibitory concentration (IC50)
# Experimental: The ability to use these emulsions for drug delivery purposes was assessed using the 3-(4,5-dimethylthiazol-2-yl)-2,5-diphenyltetrazolium bromide (MTT) assay. The assay was conducted on cervical adenocarcinoma HeLa cells with the widely used drug paclitaxel (PTX). […] This poses significant disadvantages due to stability issues of the drug that can precipitate when diluted, causing therapeutic failures and possibly harming the patients. […] One way to overcome these complications is to administer the drug in an emulsion. An additional advantage of the system proposed herein is that the disassembly of the emulsion droplets will release the metal ions of the complex in addition to the PTX. […]
# The complete cell-culture medium was prepared by the addition of 10% fetal bovine serum (FBS), 1% L-glutamine, and 1% Penicillin-Streptomycin (all purchased from Sartorius) to Dulbecco's Modified Eagle's Medium (DMEM, Sigma Aldrich). […] Afterwards, cytotoxicity was measured by the previously reported MTT method. […] The medium was removed and replaced with isopropanol (200 μL), and upon complete dissolution of the formazan, the absorbance was measured at 550 nm on a Spark 10 M multimode microplate reader spectrophotometer (Tecan Group Ltd., Mannedorf, Switzerland). […]
structure (smiles),measurement,setting,value
"N[C@@H](Cc1c[nH]c2ccccc12)C(=O)N[C@@H](Cc1c[nH]cn1)C(=O)N[C@@H](Cc1c[nH]cn1)C(=O)N[C@@H](Cc1c[nH]c2ccccc12)C(=O)O [WHHW, Trp-His-His-Trp] (H-WHHW-OH)",formation of emulsions with Cu^2+ ions,[1]; 1 mM peptide derivative and 1 mM Cu^2+,formed emulsions
same,Kd,[2],145 µM
same,self-assembled structure with Cu^2+ ions,"[3]; 5 mM peptide, 5 mM Cu^2+",spherical aggregates alongside the fibrous structures
same,self-assembled structure,"[3]; 10 mM, water, 24 h",fibrous structures
"O=C1OC2(c3ccc(O)cc3Oc3cc(O)ccc32)c2ccc(N=C=S)cc21 [FITC, fluorescein isothiocyanate]",solubility in castor oil,[4],low solubility
same,% EE (encapsulation efficiency) in words,[4],lower
same,Solubility in water,[5],Insoluble
c1c[nH]cn1 [imidazole],pKa of the imidazole's amine,[6],~ 6
CCN(CC)c1ccc2nc3c4ccccc4c(=O)cc-3oc2c1 [Nile red],Solubility in water,[5],Insoluble
CCN(CC)C(=S)SSC(=S)N(CC)CC [Disulfiram],anti-tumor efficacy in presence of metal ions,[7],promoted
CC(=O)O[C@H]1C(=O)[C@@]2(C)[C@H]([C@H](OC(=O)c3ccccc3)[C@]3(O)C[C@H](OC(=O)[C@H](O)[C@@H](NC(=O)c4ccccc4)c4ccccc4)C(C)=C1C3(C)C)[C@]1(OC(C)=O)CO[C@@H]1C[C@@H]2O [Paclitaxel],IC50,[8],0.014 ± 0.005 µM
same,anti-tumor efficacy in presence of metal ions,[7],enhanced
same,Solubility in water,[5],Insoluble
COc1cc(/C=C/C(=O)CC(=O)/C=C/c2ccc(O)c(OC)c2)ccc1O [curcumin],anti-tumor efficacy in presence of metal ions,[7],promoted
"N[C@@H](Cc1ccccc1)C(=O)N[C@@H](Cc1c[nH]cn1)C(=O)N[C@@H](Cc1c[nH]cn1)C(=O)N[C@@H](Cc1ccccc1)C(=O)O [FHHF, Phe-His-His-Phe] (H-FHHF-OH)",emulsion stability compared with WHHW,[1]; 1 mM peptide and 1 mM Cu^2+,less stable
Cc1ccc(C)c(N=Nc2cc(C)c(N=Nc3c(O)ccc4ccccc34)cc2C)c1 [Oil red O],solubility in castor oil,[4],low solubility
same,% EE (encapsulation efficiency) in words,[4],lower
same,Solubility in water,[5],Insoluble
